Results published in PMC6514812, “[^18F]Fluoroethyltriazolyl Monocyclam Derivatives as Imaging Probes for the Chemokine Receptor CXCR4” (Molecules, 2019).
Where two headings read alike, the source gives them in different places.

How the values were obtained:
[1] = target: T1, CXCR4 (Homo sapiens, UniProt P61073); experiment: Competition binding assay vs [^68Ga]Pentixafor in PC3-CXCR4 cells
T1 construct: expressed in transfected cells; host or cells: PC3 (human prostate cancer) cells stably transduced with CXCR4
T1 sequence (P61073 whole entry): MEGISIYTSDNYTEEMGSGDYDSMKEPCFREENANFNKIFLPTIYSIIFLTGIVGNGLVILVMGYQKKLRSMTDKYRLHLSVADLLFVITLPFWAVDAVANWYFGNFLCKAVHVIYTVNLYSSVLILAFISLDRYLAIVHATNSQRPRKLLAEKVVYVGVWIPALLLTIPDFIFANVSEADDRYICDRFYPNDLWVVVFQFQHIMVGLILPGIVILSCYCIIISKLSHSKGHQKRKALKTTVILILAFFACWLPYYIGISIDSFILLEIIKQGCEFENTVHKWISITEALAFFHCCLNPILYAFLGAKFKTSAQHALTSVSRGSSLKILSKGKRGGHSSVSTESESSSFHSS
How it was run: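 PC3-CXCR4 cells were incubated 60 min at 37 °C with tracer ([^68Ga]Pentixafor at 100 nM or [^18F]RPS-544 at ~5 pM) plus unlabelled ligand at eight concentrations (0.001–10,000 nM). Cell-bound activity was gamma-counted after washing. Non-specific binding was subtracted and IC50 was fitted to a sigmoidal Hill model assuming simple competition.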

[2] = target: T1, CXCR4; experiment: Saturation binding assay in PC3-CXCR4 cells
How it was run: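 PC3 cells expressing CXCR4 incubated with ~5 nM radioligand plus matching unlabelled ligand at eight final concentrations, 0.001–10,000 nM, in triplicate, then washed and counted. Kd from a one-site nonlinear fit, y = (Bmax · x)/(Kd + x), after non-specific binding subtraction; reported ± SD.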

[3] = system: PC3-CXCR4 cells; experiment: Cell-associated activity in PC3-CXCR4 cells; format: cell-based, human; details: 1 h
Protocol: Maximum cell-associated activity was calculated by subtracting the cell uptake of the radioactive ligand at the highest non-radioactive ligand concentration of 10 µM (which we considered to be non-specific uptake/binding) from the cell uptake at the lowest non-radioactive ligand concentration of 10^−5 µM.

[4] = system: PC3-CXCR4 xenograft tumors; experiment: µPET/CT titration of tumor uptake by co-injection of AMD-3100 (block50); format: in vivo, BALB/c mice; details: co-injection of AMD-3100, µPET/CT 1 h p.i.; listed as [^18F]RPS-544
Protocol: All animal studies were approved by the Institutional Animal Care and Use Committee of Weill Cornell Medicine (Protocol Number: 2015-0066) and were undertaken in accordance with the guidelines set forth by the USPHS Policy on Humane Care and Use of Laboratory Animals. Animals were housed under standard conditions in approved facilities with 12 h light/dark cycles. Food and water was provided ad libitum throughout the course of the studies. Hairless 6-to-8-week old male BALB/c inbred athymic nude mice (Jackson Laboratory, Bar Harbor, ME, USA) were inoculated bilaterally with 0.2 mL of a 1:1 mixture of 10^7 PC3-CXCR4 cells in PBS and Matrigel (Corning, Tewksbury, MA, USA) subcutaneously in the left shoulder and 0.2 mL of a 1:1 mixture of 10^7 PC3-WT cells in PBS and Matrigel subcutaneously in the right shoulder. […]
For the imaging studies, the tumor-bearing mice (n = 2/compound) were injected intravenously with 100 μL of a 9% v/v EtOH/saline solution containing approximately 3.7 MBq of the radioligand. […] Tumor uptake was quantified by the following procedure: CT-aided regions of interest were drawn, and tissue concentration was determined by comparison with a 3 %ID/cm^3 standard included in the field of view. Uptake was expressed as percent injected dose per centimeter cubed (%ID/cm^3) ± standard deviation.

[5] = system: PC3-CXCR4 xenograft tumors; parameters: method as in PMID 29544122; details: cited from earlier work

SMILES: Fc1cccc(CNCc2ccc(CN3CCCNCCNCCCNCC3)cc2)n1 [RPS-544]
- IC50 ([1]; vs 100 nM [^68Ga]Pentixafor, PC3-CXCR4 cells, 60 min 37 °C): 6.3 ± 0.8 nM
- Hill Slope, Competitive Binding Experiment ([1]; vs [^68Ga]Pentixafor, value ± SD): 1.13 ± 0.47
- Kd ([2]; saturation binding, PC3-CXCR4 cells): 5.1 ± 1 nM
- Hill Slope, Saturation Binding Experiment ([2]; value ± SD): 1.06 ± 0.11
- Cell-Associated Activity [3]: 8.2 ± 0.3 %IA
- Block50: dose of AMD-3100 reducing uptake in PC3-CXCR4 tumors by 50% [4]: 0.17 ± 0.06 mg/kg
- PC3-CXCR4 Tumor-to-Tissue Ratio Blood ([5]; 1 h p.i.): 2.5 ± 0.4
- PC3-CXCR4 Tumor-to-Tissue Ratio Bone ([5]; 1 h p.i.): 4.2 ± 1.2
- PC3-CXCR4 Tumor-to-Tissue Ratio Kidneys ([5]; 1 h p.i.): 0.1 ± 0.1
- PC3-CXCR4 Tumor-to-Tissue Ratio Liver ([5]; 1 h p.i.): 0.1 ± 0.1
- PC3-CXCR4 Tumor-to-Tissue Ratio Lungs ([5]; 1 h p.i.): 2.0 ± 1.2
- PC3-CXCR4 Tumor-to-Tissue Ratio Muscle ([5]; 1 h p.i.): 11.1 ± 0.4
- PC3-CXCR4 Tumor-to-Tissue Ratio PC3-WT ([5]; 1 h p.i.): 3.3 ± 1.3
- PC3-CXCR4 Tumor Uptake ([5]; 1 h p.i., previously published data): 3.4 ± 1.2 %ID/g
- PC3-CXCR4 Tumor-to-Tissue Ratio Blood ([5]; 2 h p.i.): 4.8 ± 0.1
- PC3-CXCR4 Tumor-to-Tissue Ratio Bone ([5]; 2 h p.i.): 2.9 ± 0.3
- PC3-CXCR4 Tumor-to-Tissue Ratio Kidneys ([5]; 2 h p.i.): 0.1 ± 0.1
- PC3-CXCR4 Tumor-to-Tissue Ratio Liver ([5]; 2 h p.i.): 0.1 ± 0.1
- PC3-CXCR4 Tumor-to-Tissue Ratio Lungs ([5]; 2 h p.i.): 1.7 ± 0.3
- PC3-CXCR4 Tumor-to-Tissue Ratio Muscle ([5]; 2 h p.i.): 6.7 ± 0.2
- PC3-CXCR4 Tumor-to-Tissue Ratio PC3-WT ([5]; 2 h p.i.): 2.6 ± 0.3
